Experimental findings from ChEMBL document CHEMBL1139922, “Discovery and structure-activity relationship studies of indole derivatives as liver X receptor (LXR) agonists” (Bioorg Med Chem Lett, 2007) are described below.

Some results are limits rather than exact numbers.

In assay [1] the target is T1, Oxysterols receptor LXR-beta (Homo sapiens, UniProt P55055).
T1 sequence (P55055 whole entry): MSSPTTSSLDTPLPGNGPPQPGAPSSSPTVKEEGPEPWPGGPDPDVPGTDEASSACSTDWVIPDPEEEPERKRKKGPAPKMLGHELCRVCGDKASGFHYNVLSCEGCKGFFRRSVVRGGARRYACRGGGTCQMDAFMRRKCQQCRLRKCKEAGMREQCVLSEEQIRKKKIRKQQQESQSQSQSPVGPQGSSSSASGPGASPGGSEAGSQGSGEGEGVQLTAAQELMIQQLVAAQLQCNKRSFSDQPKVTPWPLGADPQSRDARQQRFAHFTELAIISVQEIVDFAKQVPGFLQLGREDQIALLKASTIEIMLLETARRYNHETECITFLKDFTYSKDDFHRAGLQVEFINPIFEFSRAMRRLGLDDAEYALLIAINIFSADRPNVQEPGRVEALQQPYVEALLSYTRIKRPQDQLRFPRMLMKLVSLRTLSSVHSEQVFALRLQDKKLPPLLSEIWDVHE
The assay can be described thus: Agonist activity at LXRbeta LBD by HTRF cofactor peptide recruitment assay. The format is functional.

Another assay concerns HepG2 (Homo sapiens). The experiment in a line: Ratio of induction of SREBP1c gene expression in HepG2 cells at 10 uM to control.
For another assay, the system named is HepG2. The experiment in a line: Ratio of induction of lipogenesis in HepG2 cells at 10 uM to control after 24 hrs. Type of assay: functional, Homo sapiens.
In assay [2] the test system is THP-1. The assay can be described thus: Ratio of induction of ABCA1 gene expression in THP1 cells at 10 uM to control. Type of assay: functional, Homo sapiens.
For assay [3], the target named is T2, Oxysterols receptor LXR-alpha (Homo sapiens, UniProt Q13133).
T2 sequence (Q13133 whole entry): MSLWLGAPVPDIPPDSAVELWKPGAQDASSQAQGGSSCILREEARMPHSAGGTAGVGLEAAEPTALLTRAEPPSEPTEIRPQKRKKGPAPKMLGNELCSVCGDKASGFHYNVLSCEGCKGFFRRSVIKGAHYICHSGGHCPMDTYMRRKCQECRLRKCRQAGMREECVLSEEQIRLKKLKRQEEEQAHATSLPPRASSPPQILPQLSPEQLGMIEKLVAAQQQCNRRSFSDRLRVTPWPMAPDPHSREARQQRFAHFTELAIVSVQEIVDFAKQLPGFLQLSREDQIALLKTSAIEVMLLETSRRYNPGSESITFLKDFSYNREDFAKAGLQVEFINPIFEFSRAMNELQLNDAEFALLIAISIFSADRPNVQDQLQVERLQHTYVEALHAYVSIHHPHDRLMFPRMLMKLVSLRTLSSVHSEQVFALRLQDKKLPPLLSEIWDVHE
The experiment in a line: Agonist activity at LXRalpha LBD by HTRF cofactor peptide recruitment assay. The format is functional.

Assay [4] relates to THP-1. The assay can be described thus: Ratio of induction of cholesterol efflux in THP1 cells at 10 uM to control after 18 hrs. The format is functional, Homo sapiens.
For assay [5], the system named is THP-1. The assay can be described thus: Induction of cholesterol efflux in THP1 cells after 18 hrs. The format is functional, cell-based. The settings on record: Homo sapiens, THP-1, 18 h.

`Cc1ccc(S(=O)(=O)NC2Cc3ccc(-c4cc5ccccc5n4C(=O)OC(C)(C)C)cc3C2)cc1` (stereo not given) registered an EC50 in assay [1] of 430 nM. The same measure, in the same setting: in the case of `CCOC(=O)n1c(-c2ccc3c(c2)CC(NS(=O)(=O)c2ccccc2)C3)cc2ccccc21` (stereo not given) it was 1600 nM. As to `CC(C)(C)OC(=O)n1c(-c2ccc3c(c2)CC(NS(=O)(=O)Cc2ccccc2)C3)cc2ccccc21` (stereo not given), the midpoint of the response in assay [1], the EC50, lay at 520 nM. On the same count and under the same terms, in the case of `CC(C)(C)OC(=O)n1c(-c2ccc3c(c2)C[C@@H](NS(=O)(=O)c2ccccc2)C3)cc2ccccc21` it was 130 nM. For the compound `O=C(O)Cc1cccc(OCCCN(Cc2cccc(C(F)(F)F)c2Cl)CC(c2ccccc2)c2ccccc2)c1`, the Ratio in the assay with HepG2 (Homo sapiens) is on record as 5.2; with HepG2, 2.7; with THP-1 [2], 10.7; with THP-1 [4], 1.8. Moreover, the EC50 in assay [3] turned out to be 367 nM; in assay [1], 35 nM; in the assay with THP-1 [5] it was 10 nM. `COc1ccc(Cn2c(-c3ccc4c(c3)CC(NS(=O)(=O)c3ccccc3)C4)cc3ccccc32)cc1` (stereo not given) returned an EC50 in assay [1] above 30000 nM.

In turn, `Cc1cccc(S(=O)(=O)NC2Cc3ccc(-c4cc5ccccc5n4C(=O)OC(C)(C)C)cc3C2)c1` (stereo not given) gave an EC50 in assay [1] of 1330 nM. This lies in the single-digit micromolar range. Same read-out and setting: in the case of `O=S(=O)(NC1Cc2ccc(-c3cc4ccccc4n3CCc3ccccc3)cc2C1)c1ccccc1` (stereo not given) it was above 10000 nM; in that of `COc1cccc(S(=O)(=O)NC2Cc3ccc(-c4cc5ccccc5n4C(=O)OC(C)(C)C)cc3C2)c1` (stereo not given), 960 nM; in that of `CCc1ccc(S(=O)(=O)NC2Cc3ccc(-c4cc5ccccc5n4C(=O)OC(C)(C)C)cc3C2)cc1` (stereo not given), 650 nM. Same read-out and setting: next, `O=S(=O)(NC1Cc2ccc(-c3cc4ccccc4n3CCCOCc3ccccc3)cc2C1)c1ccccc1` (stereo not given): above 30000 nM; `CC(C)(C)OC(=O)n1c(-c2ccc3c(c2)CC(NS(=O)(=O)c2ccc(C(F)(F)F)cc2)C3)cc2ccccc21` (stereo not given): 730 nM; `CC(C)(C)OC(=O)n1c(-c2ccc3c(c2)CC(NS(=O)(=O)c2ccccc2)C3)cc2cc(F)ccc21` (stereo not given): 1500 nM. Still for that read-out and setting: in the case of `CC(C)(C)OC(=O)n1c(-c2ccc3c(c2)CC(NS(=O)(=O)c2ccccc2C(=O)O)C3)cc2ccccc21` (stereo not given) it was 3350 nM; in that of `CC(C)(C)COC(=O)n1c(-c2ccc3c(c2)CC(NS(=O)(=O)c2ccccc2)C3)cc2ccccc21` (stereo not given), 1400 nM. For `O=C(CC1CC1)n1c(-c2ccc3c(c2)CC(NS(=O)(=O)c2ccccc2)C3)cc2ccccc21` (stereo not given), the midpoint of the response in assay [1], the EC50, lay at 1160 nM. Consider `O=C(C1CCCC1)n1c(-c2ccc3c(c2)CC(NS(=O)(=O)c2ccccc2)C3)cc2ccccc21` (stereo not given), for which, in assay [1], the EC50 is 900 nM. The EC50 values of the last two compounds are within 1.5-fold of each other. Still for that read-out and setting: next, `COc1ccccc1C(=O)NC1Cc2ccc(-c3cc4ccccc4n3C(=O)OC(C)(C)C)cc2C1` (stereo not given): 470 nM. Same read-out and setting: next, `CC(C)(C)OC(=O)n1c(-c2ccc3c(c2)CC(NS(=O)(=O)c2ccccc2)C3)cc2cc(OCc3ccccc3)ccc21` (stereo not given): above 30000 nM; `CC(C)(C)OC(=O)n1c(-c2ccc3c(c2)CC(NC(=O)c2ccccc2O)C3)cc2ccccc21` (stereo not given): 530 nM; `CC(C)(C)OC(=O)n1c(-c2ccc3c(c2)CC(NS(=O)(=O)c2ccccc2C#N)C3)cc2ccccc21` (stereo not given): 60 nM. On the same count and under the same terms, in the case of `Cc1ccc2c(c1)cc(-c1ccc3c(c1)CC(NS(=O)(=O)c1ccccc1)C3)n2C(=O)OC(C)(C)C` (stereo not given) it was 18000 nM.

As for `CC(C)(C)OC(=O)n1c(-c2ccc3c(c2)CC(NC(=O)Nc2ccccc2)C3)cc2ccccc21` (stereo not given), a half-maximal response in assay [1] (EC50) required 1500 nM. In assay [1], `Cc1ccccc1S(=O)(=O)NC1Cc2ccc(-c3cc4ccccc4n3C(=O)OC(C)(C)C)cc2C1` (stereo not given) gave an EC50 of 200 nM.

Regarding `COc1ccccc1S(=O)(=O)NC1Cc2ccc(-c3cc4ccccc4n3C(=O)OC(C)(C)C)cc2C1` (stereo not given), the EC50 in assay [1] was determined as 600 nM. The same measure, in the same setting: next, `COc1ccc2c(c1)cc(-c1ccc3c(c1)CC(NS(=O)(=O)c1ccccc1)C3)n2C(=O)OC(C)(C)C` (stereo not given): 28000 nM. On the same count and under the same terms, in the case of `CC(C)(C)OC(=O)Cn1c(-c2ccc3c(c2)CC(NS(=O)(=O)c2ccccc2)C3)cc2ccccc21` (stereo not given) it was above 30000 nM; in that of `CC(C)(C)OC(=O)n1c(-c2ccc3c(c2)CC(NS(=O)(=O)c2ccccc2)C3)cc2ccc(OCc3ccccc3)cc21` (stereo not given), above 30000 nM. On to `CC(C)(C)OC(=O)n1c(-c2ccc3c(c2)CC(NS(=O)(=O)c2ccccc2)C3)cc2c(OCc3ccccc3)cccc21` (stereo not given), for which the EC50 in assay [1] was above 30000 nM. The same measure, in the same setting: in the case of `CC(C)(C)OC(=O)n1c(-c2ccc3c(c2)CC(NC(=O)c2ccccc2)C3)cc2ccccc21` (stereo not given) it was 190 nM.

As to `COC(=O)c1ccccc1S(=O)(=O)NC1Cc2ccc(-c3cc4ccccc4n3C(=O)OC(C)(C)C)cc2C1` (stereo not given), the EC50 in assay [1] was determined as 600 nM. The same measure, in the same setting: next, `CC(C)(C)OC(=O)n1c(-c2ccc3c(c2)CC(NS(=O)(=O)c2ccc(Cl)cc2)C3)cc2ccccc21` (stereo not given): 1160 nM; `CC(C)(C)OC(=O)n1c(-c2ccc3c(c2)CC(NC(=O)c2ccccc2F)C3)cc2ccccc21` (stereo not given): 170 nM; `O=S(=O)(NC1Cc2ccc(-c3cc4ccccc4n3Cc3ccccc3)cc2C1)c1ccccc1` (stereo not given): above 30000 nM. Compound `CC(C)(C)OC(=O)n1c(-c2ccc3c(c2)CC(NS(=O)(=O)c2ccc(-c4ccccc4)cc2)C3)cc2ccccc21` (stereo not given) yielded a 50% effective concentration (EC50) in assay [1] of 2100 nM. The same measure, in the same setting: next, `CC(C)(C)OC(=O)n1c(-c2ccc3c(c2)CC(NS(=O)(=O)c2ccccc2)C3)cc2cc(C#N)ccc21` (stereo not given): 26000 nM; `CCCCCC(=O)n1c(-c2ccc3c(c2)CC(NS(=O)(=O)c2ccccc2)C3)cc2ccccc21` (stereo not given): 2100 nM; `CC(C)(C)OC(=O)n1c(-c2ccc3c(c2)CC(NS(=O)(=O)c2cccc(C#N)c2)C3)cc2ccccc21` (stereo not given): 460 nM. `Cc1noc(C)c1S(=O)(=O)NC1Cc2ccc(-c3cc4ccccc4n3C(=O)OC(C)(C)C)cc2C1` (stereo not given) registered an EC50 in assay [1] of 130 nM. Compared with the last compound, the EC50 is about 3.5-fold lower. On the same count and under the same terms, in the case of `CC(C)(C)CC(=O)n1c(-c2ccc3c(c2)CC(NS(=O)(=O)c2ccccc2)C3)cc2ccccc21` (stereo not given) it was above 30000 nM; in that of `CCS(=O)(=O)NC1Cc2ccc(-c3cc4ccccc4n3C(=O)OC(C)(C)C)cc2C1` (stereo not given), 400 nM; in that of `CC(C)(C)OC(=O)n1c(-c2ccc3c(c2)CC(NS(=O)(=O)c2ccccc2Cl)C3)cc2ccccc21` (stereo not given), 760 nM.

The compound `CC(C)(C)OC(=O)n1c(-c2ccc3c(c2)CC(NS(=O)(=O)c2ccccc2)C3)cc2c(O)cccc21` (stereo not given) gave an EC50 in assay [1] above 30000 nM. `O=S(=O)(NC1Cc2ccc(-c3cc4ccccc4[nH]3)cc2C1)c1ccccc1` (stereo not given) displayed an EC50 in assay [1] above 30000 nM. On the same count and under the same terms, in the case of `CC(C)(C)OC(=O)n1c(-c2ccc3c(c2)CC(NS(=O)(=O)c2ccccc2F)C3)cc2ccccc21` (stereo not given) it was 100 nM; in that of `CC(C)(C)OC(=O)n1c(-c2ccc3c(c2)CC(NS(=O)(=O)c2ccccc2)C3)cc2cc(O)ccc21` (stereo not given), above 30000 nM. Same read-out and setting: next, `Cc1ccc2cc(-c3ccc4c(c3)CC(NS(=O)(=O)c3ccccc3)C4)n(C(=O)OC(C)(C)C)c2c1` (stereo not given): 300 nM.

As for `COc1ccc2cc(-c3ccc4c(c3)CC(NS(=O)(=O)c3ccccc3)C4)n(C(=O)OC(C)(C)C)c2c1` (stereo not given), in assay [1], the EC50 was found to be 1600 nM. `CC(C)(C)OC(=O)n1c(-c2ccc3c(c2)CC(NS(=O)(=O)c2cccc(Cl)c2)C3)cc2ccccc21` (stereo not given) showed an EC50 in assay [1] of 1810 nM. On the same count and under the same terms, in the case of `CC(C)(C)OC(=O)n1c(-c2ccc3c(c2)CC(NS(C)(=O)=O)C3)cc2ccccc21` (stereo not given) it was 210 nM; in that of `CC(C)(C)OC(=O)n1c(-c2ccc3c(c2)CC(NS(=O)(=O)c2ccccc2C(F)(F)F)C3)cc2ccccc21` (stereo not given), 800 nM.

In the assay with THP-1 [5], `O=S(=O)(c1ccccc1)N(CC(F)(F)F)c1ccc(C(O)(C(F)(F)F)C(F)(F)F)cc1` [T091317] returned an EC50 of 33 nM.

Compound `O=S(=O)(NC1Cc2ccc(-c3cc4ccccc4n3S(=O)(=O)c3ccccc3)cc2C1)c1ccccc1` (stereo not given) came in with an EC50 in assay [1] above 30000 nM. The same measure, in the same setting: in the case of `COC(=O)n1c(-c2ccc3c(c2)CC(NS(=O)(=O)c2ccccc2)C3)cc2ccccc21` (stereo not given) it was above 30000 nM; in that of `CC(C)(C)OC(=O)n1c(-c2ccc3c(c2)C[C@H](NS(=O)(=O)c2ccccc2)C3)cc2ccccc21`, 660 nM.

Turning to `CCCCC(C)COC(=O)n1c(-c2ccc3c(c2)CC(NS(=O)(=O)c2ccccc2)C3)cc2ccccc21` (stereo not given), in assay [1], the EC50 was above 30000 nM. In turn, `Cn1c(-c2ccc3c(c2)CC(NS(=O)(=O)c2ccccc2)C3)cc2ccccc21` (stereo not given) came in with an EC50 in assay [1] above 30000 nM.

In assay [1], `CC(C)CCOC(=O)n1c(-c2ccc3c(c2)CC(NS(=O)(=O)c2ccccc2)C3)cc2ccccc21` (stereo not given) yielded an EC50 of 1300 nM. Still for that read-out and setting: next, `CC(C)(C)OC(=O)n1c(-c2ccc3c(c2)CC(NS(=O)(=O)c2ccccc2)C3)cc2ccc(O)cc21` (stereo not given): 670 nM.
